Experimental data reported in the NIST ThermoML archive (doi:10.1016/j.fluid.2012.11.029).
± gives the expanded uncertainty stated by the source.

Legend:
[1] = Crystal; DTA
[2] = Molar enthalpy of transition or fusion; settings: Crystal; DSC

| Normal melting temperature [1] | Molar enthalpy of transition or fusion [2] | SMILES |
| --- | --- | --- |
| 188.27 ± 1.1 °C | 6.72 ± 0.191 kcal/mol | NC(=O)c1cnccn1 [pyrazinecarboxamide] |
| 172.69 ± 1.1 °C | 6.67 ± 0.191 kcal/mol | NNC(=O)c1ccncc1 [isonicotinic acid hydrazide] |

| SMILES | Normal melting temperature [1] | Molar enthalpy of transition or fusion [2] |
| --- | --- | --- |
| CCCCCCCCCC[N+](C)(C)CCCCCCCCCC.O=[N+]([O-])[O-] [Didecyldimethylammonium nitrate] | 31.7 ± 1.1 °C | 2.33 ± 0.0789 kcal/mol |
